From ChEMBL document CHEMBL3045542, “A quantitative structure-activity relationship study of herbicidal analogues of alpha-hydroxy-substituted 3-benzylidenepyrrolidene-2,4-diones” (2006)

Experiments:
Format in all cases: functional
Digitaria sanguinalis [1] = assay: Herbicidal activity against Digitaria sanguinalis (hairy crabgrass) assessed as inhibition of plant growth at 93.75 g/ha applied as pre-emergence treatment; conditions: for inhibition at 93.75 g/ha: Digitaria sanguinalis, pre-emergence
Echinochloa crus-galli [2] = assay: Herbicidal activity against Echinochloa crus-galli (barnyard grass) assessed as inhibition of plant growth at 93.75 g/ha applied as pre-emergence treatment; conditions: for inhibition at 93.75 g/ha: Echinochloa crus-galli, pre-emergence
Echinochloa crus-galli [3] = assay: Herbicidal activity against Echinochloa crus-galli (barnyard grass) assessed as inhibition of plant growth at 187.5 g/ha applied as pre-emergence treatment; conditions: for inhibition at 187.5 g/ha: Echinochloa crus-galli, pre-emergence
Echinochloa crus-galli [4] = assay: Herbicidal activity against Echinochloa crus-galli (barnyard grass) assessed as inhibition of plant growth at 10 ug/mL by cup test
Digitaria sanguinalis [5] = assay: Herbicidal activity against Digitaria sanguinalis (hairy crabgrass) assessed as inhibition of plant growth at 750 g/ha applied as pre-emergence treatment; conditions: for inhibition at 750 g/ha: Digitaria sanguinalis, pre-emergence
Echinochloa crus-galli [6] = assay: Herbicidal activity against Echinochloa crus-galli (barnyard grass) assessed as inhibition of plant growth at 750 g/ha applied as pre-emergence treatment; conditions: for inhibition at 750 g/ha: Echinochloa crus-galli, pre-emergence
Digitaria sanguinalis [7] = assay: Herbicidal activity against Digitaria sanguinalis (hairy crabgrass) assessed as inhibition of plant growth at 187.5 g/ha applied as pre-emergence treatment; conditions: for inhibition at 187.5 g/ha: Digitaria sanguinalis, pre-emergence
Echinochloa crus-galli [8] = assay: Herbicidal activity against Echinochloa crus-galli (barnyard grass) assessed as inhibition of plant growth at 375 g/ha applied as pre-emergence treatment; conditions: for inhibition at 375 g/ha: Echinochloa crus-galli, pre-emergence
Digitaria sanguinalis [9] = assay: Herbicidal activity against Digitaria sanguinalis (hairy crabgrass) assessed as inhibition of plant growth at 375 g/ha applied as pre-emergence treatment; conditions: for inhibition at 375 g/ha: Digitaria sanguinalis, pre-emergence
[10] = tested as the Zn salt or complex

| Compound | inhibition at 93.75 g/ha (Digitaria sanguinalis [1]) [%] | inhibition at 93.75 g/ha (Echinochloa crus-galli [2]) [%] | inhibition at 187.5 g/ha (Echinochloa crus-galli [3]) [%] | inhibition at 10 µg/mL (Echinochloa crus-galli [4]) [%] | inhibition at 750 g/ha (Digitaria sanguinalis [5]) [%] | inhibition at 750 g/ha (Echinochloa crus-galli [6]) [%] | inhibition at 187.5 g/ha (Digitaria sanguinalis [7]) [%] | inhibition at 375 g/ha (Echinochloa crus-galli [8]) [%] | inhibition at 375 g/ha (Digitaria sanguinalis [9]) [%] | inhibition (INH) (Echinochloa crus-galli [2]) [%] | inhibition (INH) (Echinochloa crus-galli [3]) [%] | also measured |
| --- | --- | --- | --- | --- | --- | --- | --- | --- | --- | --- | --- | --- |
| CCC(C)N1CC(=O)/C(=C(/O)c2ccc(OC)cc2OC)C1=O (stereo unspecified) | 0 | 13 | 14 | 79 | 80 | 100 | 4 | 76 | 63 |  |  |  |
| CCOc1ccc(/C(O)=C2\C(=O)CN(C(C)C)C2=O)cc1 |  |  |  | 79 |  |  |  |  |  | 36 | 95 | inhibition (INH) (Digitaria sanguinalis [1]): 5%; inhibition (INH) (Digitaria sanguinalis [5]): 93%; inhibition (INH) (Echinochloa crus-galli [6]): 100%; inhibition (INH) (Digitaria sanguinalis [7]): 66%; inhibition (INH) (Echinochloa crus-galli [8]): 100%; inhibition (INH) (Digitaria sanguinalis [9]): 77% |
| CS(=O)(=O)c1ccc(C(=O)C2C(=O)CCCC2=O)c(Cl)c1 [SULCOTRIONE] | 100 | 70 | 93 |  | 100 | 100 | 100 | 100 | 100 |  |  |  |
| CCOc1ccc(/C(O)=C2\C(=O)CN(C(C)CC)C2=O)cc1 (stereo unspecified) | 18 | 7 | 28 | 78 | 96 | 93 | 41 | 82 | 59 |  |  |  |
| COc1ccc(/C([O-])=C2\C(=O)CN(C(C)C)C2=O)c(OC)c1.COc1ccc(/C([O-])=C2\C(=O)CN(C(C)C)C2=O)c(OC)c1.[Zn+2] |  |  |  |  |  |  |  |  |  | 72 | 85 | inhibition at 93.75 g/ha (Digitaria sanguinalis [1]; [10]): 15%; inhibition at 750 g/ha (Digitaria sanguinalis [5]; [10]): 100%; inhibition at 750 g/ha (Echinochloa crus-galli [6]; [10]): 100%; inhibition at 187.5 g/ha (Digitaria sanguinalis [7]; [10]): 82%; inhibition at 375 g/ha (Echinochloa crus-galli [8]; [10]): 100%; inhibition at 375 g/ha (Digitaria sanguinalis [9]; [10]): 100% |
| C=CCOc1ccc(/C(O)=C2\C(=O)CN(C(C)C)C2=O)cc1 | 0 | 30 | 55 | 78 | 79 | 100 | 36 | 95 | 74 |  |  |  |
| COc1ccc(/C(O)=C2\C(=O)CN(C(C)C)C2=O)c(OC)c1 |  |  |  | 78 |  |  |  |  |  | 10 | 56 | inhibition (INH) (Digitaria sanguinalis [1]): 20%; inhibition (INH) (Digitaria sanguinalis [5]): 95%; inhibition (INH) (Echinochloa crus-galli [6]): 99%; inhibition (INH) (Digitaria sanguinalis [7]): 84%; inhibition (INH) (Echinochloa crus-galli [8]): 94%; inhibition (INH) (Digitaria sanguinalis [9]): 95% |
